Experiments:
Type in all cases: in vivo
[1] = system: foxtail, giant (giant foxtail, Setaria faberii); test: Test A preemergence, giant foxtail; conditions: Preemergence, 0 to 100 scale (0 no effect, 100 complete control)
Description: (§1) Seeds of plant species selected from barnyardgrass (Echinochloa crus-galli), kochia (Kochia scoparia), ragweed (common ragweed, Ambrosia elatior), ryegrass, Italian (Italian ryegrass, Lolium multiflorum), foxtail, giant (giant foxtail, Setaria faberii), and pigweed (Amaranthus retroflexus), were planted into a blend of loam soil and sand and treated preemergence with a directed soil spray using test chemicals formulated in a non-phytotoxic solvent mixture which included a surfactant.
(§2) At the same time, plants selected from these weed species and also wheat (Triticum aestivum), corn (Zea mays), blackgrass (Alopecurus myosuroides), and galium (catchweed bedstraw, Galium aparine), were planted in pots containing the same blend of loam soil and sand and treated with postemergence applications of test chemicals formulated in the same manner. Plants ranged in height from 2 to 10 cm and were in the one- to two-leaf stage for the postemergence treatment. Treated plants and untreated controls were maintained in a greenhouse for approximately 10 days, after which time all treated plants were compared to untreated controls and visually evaluated for injury. Plant response ratings, summarized in Table A, are based on a 0 to 100 scale where 0 is no effect and 100 is complete control. A dash (—) response means no test result.

[2] = system: ragweed (common ragweed, Ambrosia elatior); test: Test A postemergence, ragweed; conditions: postemergence, 0 to 100 scale, 0 is no effect, 100 is complete control, approximately 10 days
Description: as §1, §2

[3] = system: barnyardgrass (Echinochloa crus-galli); test: Test A preemergence, barnyardgrass; conditions: Preemergence, 0 to 100 scale (0 no effect, 100 complete control)
Description: as §1, §2

[4] = system: ryegrass, Italian (Italian ryegrass, Lolium multiflorum); test: Test A preemergence, Italian ryegrass; conditions: Preemergence, 0 to 100 scale (0 no effect, 100 complete control)
Description: as §1, §2

[5] = system: galium (catchweed bedstraw, Galium aparine); test: Test A postemergence, galium; conditions: postemergence, 0 to 100 scale, 0 is no effect, 100 is complete control, approximately 10 days
Description: as §1, §2

[6] = system: barnyardgrass (Echinochloa crus-galli); test: Test A postemergence, barnyardgrass; conditions: postemergence, 0 to 100 scale, 0 is no effect, 100 is complete control, approximately 10 days
Description: as §1, §2

[7] = system: wheat (Triticum aestivum); test: Test A postemergence, wheat; conditions: postemergence, 0 to 100 scale, 0 is no effect, 100 is complete control, approximately 10 days
Description: as §1, §2

corn (Zea mays) = test: Test A postemergence, corn; conditions: postemergence, 0 to 100 scale, 0 is no effect, 100 is complete control, approximately 10 days
Description: as §1, §2

[8] = system: blackgrass (Alopecurus myosuroides); test: Test A postemergence, blackgrass; conditions: postemergence, 0 to 100 scale, 0 is no effect, 100 is complete control, approximately 10 days
Description: as §1, §2

[9] = system: ragweed (common ragweed, Ambrosia elatior); test: Test A preemergence, ragweed; conditions: Preemergence, 0 to 100 scale (0 no effect, 100 complete control)
Description: as §1, §2

[10] = system: foxtail, giant (giant foxtail, Setaria faberii); test: Test A postemergence, giant foxtail; conditions: postemergence, 0 to 100 scale, 0 is no effect, 100 is complete control, approximately 10 days
Description: as §1, §2

kochia (Kochia scoparia) [11] = test: Test A postemergence, kochia; conditions: postemergence, 0 to 100 scale, 0 is no effect, 100 is complete control, approximately 10 days
Description: as §1, §2

[12] = system: ryegrass, Italian (Italian ryegrass, Lolium multiflorum); test: Test A postemergence, Italian ryegrass; conditions: postemergence, 0 to 100 scale, 0 is no effect, 100 is complete control, approximately 10 days
Description: as §1, §2

[13] = system: pigweed (Amaranthus retroflexus); test: Test A preemergence, pigweed; conditions: Preemergence, 0 to 100 scale (0 no effect, 100 complete control)
Description: as §1, §2

[14] = system: pigweed (Amaranthus retroflexus); test: Test A postemergence, pigweed; conditions: postemergence, 0 to 100 scale, 0 is no effect, 100 is complete control, approximately 10 days
Description: as §1, §2

kochia (Kochia scoparia) [15] = test: Test A preemergence, kochia; conditions: Preemergence, 0 to 100 scale (0 no effect, 100 complete control)
Description: as §1, §2

rice (Oryza sativa) = test: Test B flooded paddy test, rice; conditions: 250 g ai/ha, Flood; visual rating after 13 to 15 days; scale 0 to 100, 0 is no effect, 100 is complete control
Protocol: (§3) Plant species in the flooded paddy test selected from rice (Oryza sativa), sedge, umbrella (small-flower umbrella sedge, Cyperus difformis), ducksalad (Heteranthera limosa), and barnyardgrass (Echinochloa crus-galli) were grown to the 2-leaf stage for testing. At time of treatment, test pots were flooded to 3 cm above the soil surface, treated by application of test compounds directly to the paddy water, and then maintained at that water depth for the duration of the test. Treated plants and controls were maintained in a greenhouse for 13 to 15 days, after which time all species were compared to controls and visually evaluated. Plant response ratings, summarized in Table B, are based on a scale of 0 to 100 where 0 is no effect and 100 is complete control. A dash (—) response means no test result.

[16] = system: barnyardgrass (Echinochloa crus-galli); test: Test B flooded paddy test, barnyardgrass; conditions: 250 g ai/ha, Flood; visual rating after 13 to 15 days; scale 0 to 100, 0 is no effect, 100 is complete control
Protocol: as §3

[17] = system: ducksalad (Heteranthera limosa); test: Test B flooded paddy test, ducksalad; conditions: 250 g ai/ha, Flood; visual rating after 13 to 15 days; scale 0 to 100, 0 is no effect, 100 is complete control
Protocol: as §3

[18] = system: sedge, umbrella (small-flower umbrella sedge, Cyperus difformis); test: Test B flooded paddy test, umbrella sedge; conditions: 250 g ai/ha, Flood; visual rating after 13 to 15 days; scale 0 to 100, 0 is no effect, 100 is complete control
Protocol: as §3

Row | Structure (SMILES) | Plant response rating, Foxtail, Giant ([1]; 31 g ai/ha) | Plant response rating, Foxtail, Giant ([1]; 125 g ai/ha) | Plant response rating, Ragweed ([2]; 31 g ai/ha) | Plant response rating, Ragweed ([2]; 125 g ai/ha) | Plant response rating, Barnyardgrass ([3]; 31 g ai/ha) | Plant response rating, Barnyardgrass ([3]; 125 g ai/ha) | Plant response rating, Ryegrass, Italian ([4]; 31 g ai/ha) | Plant response rating, Ryegrass, Italian ([4]; 125 g ai/ha) | Plant response rating, Galium ([5]; 31 g ai/ha) | Plant response rating, Galium ([5]; 125 g ai/ha) | Plant response rating, Barnyardgrass ([6]; 31 g ai/ha) | Plant response rating, Barnyardgrass ([6]; 125 g ai/ha) | Plant response rating, Wheat ([7]; 31 g ai/ha) | Plant response rating, Wheat ([7]; 125 g ai/ha) | Plant response rating, Corn (corn (Zea mays); 31 g ai/ha) | Plant response rating, Corn (corn (Zea mays); 125 g ai/ha) | Plant response rating, Blackgrass ([8]; 31 g ai/ha) | Plant response rating, Blackgrass ([8]; 125 g ai/ha) | Plant response rating, Ragweed ([9]; 31 g ai/ha) | Plant response rating, Ragweed ([9]; 125 g ai/ha) | other results
1 | N#Cc1cccc(Oc2ncc(Cl)cn2)c1OC/C=C/Cl [Compound 7] | 60 | 100 | 0 | 10 | 20 | 100 | 0 | 10 | 50 | 80 | 10 | 90 | 0 | 10 | 10 | 20 | 10 | 30 | 0 | 0 | Plant response rating, Foxtail, Giant ([10]; 31 g ai/ha): 10; Plant response rating, Foxtail, Giant ([10]; 125 g ai/ha): 90; Plant response rating, Kochia (kochia (Kochia scoparia) [11]; 31 g ai/ha): 90; Plant response rating, Kochia (kochia (Kochia scoparia) [11]; 125 g ai/ha): 100; Plant response rating, Ryegrass, Italian ([12]; 31 g ai/ha): 10; Plant response rating, Ryegrass, Italian ([12]; 125 g ai/ha): 50; Plant response rating, Pigweed ([13]; 31 g ai/ha): 60; Plant response rating, Pigweed ([13]; 125 g ai/ha): 100; Plant response rating, Pigweed ([14]; 31 g ai/ha): 60; Plant response rating, Pigweed ([14]; 125 g ai/ha): 90; Plant response rating, Kochia (kochia (Kochia scoparia) [15]; 31 g ai/ha): 70; Plant response rating, Kochia (kochia (Kochia scoparia) [15]; 125 g ai/ha): 100
2 | N#Cc1cccc(Oc2ncc(Cl)cn2)c1OCCCF [Compound 15] | 30 | 90 | 0 | 20 | 0 | 20 | 0 | 10 | 20 | 50 | 60 | 90 | 0 | 0 | 10 | 10 | 0 | 10 | 0 | 0 | Plant response rating, Foxtail, Giant ([10]; 31 g ai/ha): 10; Plant response rating, Foxtail, Giant ([10]; 125 g ai/ha): 30; Plant response rating, Kochia (kochia (Kochia scoparia) [11]; 31 g ai/ha): 50; Plant response rating, Kochia (kochia (Kochia scoparia) [11]; 125 g ai/ha): 80; Plant response rating, Ryegrass, Italian ([12]; 31 g ai/ha): 0; Plant response rating, Ryegrass, Italian ([12]; 125 g ai/ha): 10; Plant response rating, Pigweed ([13]; 31 g ai/ha): 100; Plant response rating, Pigweed ([13]; 125 g ai/ha): 100; Plant response rating, Pigweed ([14]; 31 g ai/ha): 60; Plant response rating, Pigweed ([14]; 125 g ai/ha): 70; Plant response rating, Kochia (kochia (Kochia scoparia) [15]; 31 g ai/ha): 50; Plant response rating, Kochia (kochia (Kochia scoparia) [15]; 125 g ai/ha): 100
3 | N#Cc1cccc(Oc2ncc(F)cn2)c1OC/C=C/Cl [Compound 36] | 30 | 90 | 20 | 40 | 30 | 80 | 0 | 0 | 40 | 50 | 0 | 70 | 0 | 0 | 0 | 20 | 10 | 50 | 0 | 0 | Plant response rating, Foxtail, Giant ([10]; 31 g ai/ha): 0; Plant response rating, Foxtail, Giant ([10]; 125 g ai/ha): 50; Plant response rating, Kochia (kochia (Kochia scoparia) [11]; 31 g ai/ha): 80; Plant response rating, Kochia (kochia (Kochia scoparia) [11]; 125 g ai/ha): 90; Plant response rating, Ryegrass, Italian ([12]; 31 g ai/ha): 0; Plant response rating, Ryegrass, Italian ([12]; 125 g ai/ha): 20; Plant response rating, Pigweed ([13]; 31 g ai/ha): 100; Plant response rating, Pigweed ([13]; 125 g ai/ha): 100; Plant response rating, Pigweed ([14]; 31 g ai/ha): 50; Plant response rating, Pigweed ([14]; 125 g ai/ha): 50; Plant response rating, Kochia (kochia (Kochia scoparia) [15]; 31 g ai/ha): 10; Plant response rating, Kochia (kochia (Kochia scoparia) [15]; 125 g ai/ha): 100
4 | N#CCCCOc1c(C#N)cccc1Oc1ncc(F)cn1 [Compound 37] | 20 | 50 | 30 | 50 | 0 | 20 | 0 | 0 | 40 | 60 | 10 | 20 | 0 | 0 | 0 | 20 | 0 | 10 | 30 | 70 | Plant response rating, Foxtail, Giant ([10]; 31 g ai/ha): 0; Plant response rating, Foxtail, Giant ([10]; 125 g ai/ha): 10; Plant response rating, Kochia (kochia (Kochia scoparia) [11]; 31 g ai/ha): 50; Plant response rating, Kochia (kochia (Kochia scoparia) [11]; 125 g ai/ha): 80; Plant response rating, Ryegrass, Italian ([12]; 31 g ai/ha): 0; Plant response rating, Ryegrass, Italian ([12]; 125 g ai/ha): 0; Plant response rating, Pigweed ([13]; 31 g ai/ha): 100; Plant response rating, Pigweed ([13]; 125 g ai/ha): 100; Plant response rating, Pigweed ([14]; 31 g ai/ha): 60; Plant response rating, Pigweed ([14]; 125 g ai/ha): 70; Plant response rating, Kochia (kochia (Kochia scoparia) [15]; 31 g ai/ha): 30; Plant response rating, Kochia (kochia (Kochia scoparia) [15]; 125 g ai/ha): 80
5 | Cc1cccc(Oc2ncc(Cl)cn2)c1OC/C=C/C(F)(F)F [Compound 58] | 40 | 90 | 0 | 0 | 40 | 90 | 0 | 0 | 0 | 30 | 50 | 70 | 0 | 0 | 0 | 10 | 0 | 30 | 0 | 0 | Plant response rating, Rice (rice (Oryza sativa)): 15; Plant response rating, Barnyardgrass [16]: 0; Plant response rating, Foxtail, Giant ([10]; 31 g ai/ha): 20; Plant response rating, Foxtail, Giant ([10]; 125 g ai/ha): 70; Plant response rating, Ryegrass, Italian ([12]; 31 g ai/ha): 0; Plant response rating, Ryegrass, Italian ([12]; 125 g ai/ha): 0; Plant response rating, Pigweed ([13]; 31 g ai/ha): 0; Plant response rating, Pigweed ([13]; 125 g ai/ha): 100; Plant response rating, Ducksalad [17]: 100; Plant response rating, Pigweed ([14]; 31 g ai/ha): 10; Plant response rating, Pigweed ([14]; 125 g ai/ha): 30; Plant response rating, Sedge, Umbrella [18]: 100; Plant response rating, Kochia (kochia (Kochia scoparia) [15]; 31 g ai/ha): 0; Plant response rating, Kochia (kochia (Kochia scoparia) [15]; 125 g ai/ha): 0
